Measurements published in patent publication US9314439B2, “Composition and method for muscle repair and regeneration” (Thomas Jefferson University, priority 2010, dated 2016).
Entries after “also recorded” stand apart in the source; their conditions may differ.

Key:
RXR receptors = details: cited from earlier work
[1] = system: muscle defect in calf or anterior tibial muscles; test: muscle defect mouse model, systemic or local administration of RAR agonist; format: in vivo; details: for muscle repair: 100 μg/gavage/day at day 8, 10 and 12 from injury, 4 weeks after surgery
From the text: Histological Procedures. To inspect muscle tissue structure, samples were fixed in 4% PFA and embedded in paraffin. Five μm serial sections were stained by either H&E (http://www.ihcworld.com/_protocols/special_stains/HE_Mayer.htm) or Masson's trichrome staining solution (http://www.ihcworld.com/_protocols/special_stains/masson_trichrome.htm). To detect adipose tissue, 4% PFA fixed samples were equilibrated in 20% sucrose in PBS, embedded in OCT compound and then sectioned by cryostat. Ten μm cryosections were dried, rehydrated and then stained with Oil-red O (http://www.ihcworld.com/_protocols/special_stains/oil_ red o.htm).
Immuno-Fluorescence. For the detection of various antigens in tissue sections, 5 μm paraffin sections were de-paraffinized, re-hydrated and then treated with 0.1% pepsin in 0.02 N HCl for 15 min at 37° C. Sections were washed three times in PBS-T and blocked in 10% normal goat serum with 0.3% BSA. Sections were incubated with 1st antibody, washed three times with PBS-T and then incubated with 2nd antibody. The list of antigens, antibodies and their dilutions are shown below.
Local and Systemic Administration of RAR Agonist. Systemic administration of RAR agonist was carried out by gavage as described previously (Shimono et al. J. Orthop. Res. 28:271-277, 2010). Local delivery of RAR agonist was done by injecting RAR agonist (dissolved in DMSO) using Hamilton syringe 87943 with 26G needle.
A muscle defect mouse model was used to investigate the muscle repair stimulation by administration of RAR gamma-agonists. A round-shaped defect was created with an electric cautery in calf or anterior tibial muscles in 8 week-old mice resulting in a 2.0 mm×2.0 mm×2.0 mm defect.
Round-shaped defects were created in calf-muscle tissue of 8 weeks old mice as above (one muscle defect/mouse). […] Tissue was collected for histological analysis on day 14.
[…] Tissues were collected for histological analysis at 2 and 4 weeks. Macro-photos of injured muscle tissue collected from control and RAR gamma-agonist (CD1530)-treated mice were taken at 4 weeks after injury.
Histological analysis of skeletal muscle tissue was performed 4 weeks after injury. Serial transverse sections of muscle tissue specimens collected 4 weeks after injury (same samples as discussed directly above) were stained with Masson's trichrome or processed for immuno-staining with antibodies to laminin (an extracellular protein abundant around muscle cells). […] To evaluate and quantify the changes of skeletal muscle tissue structure, images of trichrome-stained serial sections were taken and the relative amounts of muscle fiber, adipose and fibrous tissues were determined in multiple defined areas by ImagePro software. The analyzed areas were 9×9 grids each (about 3×3 mm) that included the original injured site (2×2 mm).
The effects of various retinoid agonists on skeletal muscle repair were examined Macro photographs were taken of muscle injury sites at the 4-week time point.

[2] = system: mesenchymal stem cell line; test: MyoD and Myf5 immunostaining in mesenchymal stem cell (MSC) cultures; format: cell-based; details: 100 nM, 10 days
Description: Cells from a mesenchymal stem cell line were cultured for 10 days in the presence or absence of RAR gamma-agonist (CD1530, 100 nM). Cultures were processed for immunostaining with MyoD or Myf5 antibodies or stained with nuclear dye DAPI. […] Results indicated an increase in MyoD and Myf5 levels by the RAR gamma-agonist in mesenchymal stem cell (MSC) cultures.

[3] = system: mouse bone marrow-derived mesenchymal stem cell (BMSC) cultures; test: myogenic differentiation in mouse BMSC cultures; format: cell-based; details: 7 days, 5% FBS DMEM
Description: MSCs were isolated as described previously (ref) with minor modification. Briefly, mouse bone marrow cells (1−2×10^7) harvested from long bones of 4-6 weeks old mice were seeded onto 100-mm culture dishes, incubated for 3 hours at 37° C. to allow attachment of adherent cells, and then rinsed twice with PBS to remove the nonadherent cells. The bone marrow-derived MSCs formed adherent colonies after 12-15 days of culture. Primary cultures were passed to disperse the colony-forming cells (passage 1). The cells were then subcultured again when they reached 70% confluent. Cells were maintained in α-MEM (Gibco BRL; Invitrogen Corp.) containing 20% fetal bovine serum (FBS; Equitech-Bio Inc.), 2 mM L-glutamine, a combination of 100 U/ml penicillin and 100 μg/ml streptomycin (Biofluids Inc.), and 55 μM 2-mercaptoethanol (Gibco BRL; Invitrogen Corp.) before the first passage. After the first passage, cells were maintained in 10% FBS, α-MEM unless indicated.
The differential effects of retinoid agonists on myogenic differentiation in mouse bone marrow-derived mesenchymal stem cell (BMSC) cultures were investigated. BMSCs were prepared from femurs and tibias of 6 week-old mice by standard methods and maintained in 5% FBS DMEM for 7 days in presence of 0.1% DMSO (vehicle: Control), 1 μM all-trans retinoic acid (RA) (commercially available from Sigma), 1 μM RAR alpha-agonist (obtained from NuRx Pharmaceuticals) or 30 nM RAR gamma-agonist (CD1530, commercially available).

RAR subtypes = details: cited from earlier work
[4] = 100 ng on day 5, 7 and 9, 4 weeks after injury
[5] = 300 μg by gavage on day 8, 10 and 12, 4 weeks after injury
[6] = 300 μg/day by gavage on day 8, 10 and 12, 4 weeks after injury
[7] = 900 μg by gavage on day 8, 10 and 12, 4 weeks after injury

In the case of `CC1=C(/C=C/C(C)=C\C=C\C(C)=C\C(=O)O)C(C)(C)CCC1` [9-cis retinoic acid], the “binding to the RXR receptors” value (RXR receptors) is listed as “natural ligand”.

For `O=C(O)c1ccc2cc(-c3ccc(O)c(C45CC6CC(CC(C6)C4)C5)c3)ccc2c1` [CD437, 6-(4-Hydroxy-3-tricyclo[3.3.1.13,7]dec-1-ylphenyl)-2-naphthalenecarboxylic acid], the muscle repair [1] was “induced effective muscle repair”.

In the case of `O=C(O)c1ccc(-c2ccc3cc(O)c(C45CC6CC(CC(C6)C4)C5)cc3c2)cc1` [CD1530, 4-(6-Hydroxy-7-tricyclo[3.3.1.13,7]dec-1-yl-2-naphthalenyl)benzoic acid], the “HE histology of muscle defect” value ([1]; 100 ng on day 1, 3, 5, 7 and 9, 4 weeks after injury) is reported as “decreased adipose and fibrous scar tissue formation but left a large indentation”, the “HE histology of muscle defect” value ([1]; 100 ng on day 1, 3 and 5, 4 weeks after injury) is reported as “decreased adipose and fibrous scar tissue formation but left a large indentation” and the “indentation at muscle defect” value [1, 4] is reported as “much reduced indentation”. The “quality and amount of newly formed muscle tissue” value [1, 4] was “best”, the “repair of muscle defects after local administration” value ([1]; 3 μg injected subcutaneously around the injury site on day 8 and 10, 4 weeks) was “almost completely repaired” and the “macroscopic appearance of injury site” value [1, 5] was “almost no visible sign of the original defect; also recorded: essentially invisible”. The “tissue composition (relative amounts of muscle fiber, adipose and fibrous tissues, ImagePro)” value [1, 5] was “largely restored the tissue composition; also recorded: almost normal”, the “anti-laminin staining of repair tissue” value [1, 6] was “stained strongly with anti-laminin antibodies” and the “repair of muscle injury (Masson's trichrome sections)” value [1, 6] was “almost completely repaired”. The “amount of adipose and fibrous tissue (histo-morphometric analysis, ImagePro)” value ([1]; Day 5-9 treated group, Masson's trichrome, FIG. 6) was “least amount of adipose and fibrous tissue among all injured groups”, the “histological analysis of muscle defect” value ([1]; anterior tibial muscle, 300 μg/day by gavage on day 8, 10 and 12, 2 and 4 weeks) was “filled with muscle fibers aligned along the major longitudinal axis of the anterior tibial muscle” and the “myosin heavy chain (MHC) immunostaining of defect site” value ([1]; calf muscle, 300 μg/day by gavage on day 8, 10 and 12, day 14) was “many of these cells were MHC positive”. For the same compound, the “histology of muscle defect site” value ([1]; calf muscle, 300 μg/day by gavage on day 8, 10 and 12 after injury, day 14) was “filled with many elongated muscle-like cells”, the “HE histology of muscle defect” value ([1]; treated at days 1-3, 4 weeks after injury) was “decreased adipose and fibrous scar tissue formation but left a partial defect” and the “HE histology of muscle defect” value ([1]; treated at days 5-7, 4 weeks after injury) was “completely filled with newly generated muscle fibers”. For the same compound, the Myf5 immunostaining [2] was “clearly present”, the MyoD immunostaining [2] was “clearly present” and the “formation of elongated multinucleated muscle cells” value (“formation” for short) ([3]; 30 nM) was “Many elongated multinucleated muscle cells formed”.

For `CC1(C)CCC(C)(C)c2c1cc(C(=O)Nc1cc(F)c(C(=O)O)c(F)c1)c(O)c2Cl` [NRX195183], the “macroscopic appearance of injury site” value [1, 7] was “still clearly visible as large whitish spots”, the “tissue composition (histomorphometric quantification)” value [1, 7] was “did not improve tissue composition” and the “formation” value ([3]; 1 μM) was “formed only in RAR gamma-agonist treated cultures”.

For `CC1(C)CCC(C)(C)c2cc(Cn3cccn3)c(/C=C/c3ccc(C(=O)O)cc3)cc21` [Palovarotene, 4-[(E)-2-[5,6,7,8-Tetrahydro-5,5,8,8-tetramethyl-3-(1H-pyrazol-1-ylmethyl)-2-naphthalenyl]-ethenyl]-benzoic acid], the muscle repair [1] was “induced effective muscle repair”.

For `CC1=C(/C=C/C(C)=C/C=C/C(C)=C/C(=O)O)C(C)(C)CCC1` [RA, all-trans retinoic acid], the “binding to the RXR receptors” value (RXR receptors) is given as “does not bind”, the fibrous tissue area ([1]; 300 μg by gavage on day 8, 10 and 12, 4 weeks) is given as “significant increase of fibrous tissue area” and the “macroscopic appearance of injury site” value [1, 5] is given as “still clearly visible as large whitish spots”. For the same compound, the muscle fiber area ([1]; 300 μg by gavage on day 8, 10 and 12, 4 weeks, control 33%, normal 90%) was 54%, the “binding affinity to the three RAR subtypes” value (RAR subtypes) was “approximately equal affinity” and the “formation” value ([3]; 1 μM) was “formed only in RAR gamma-agonist treated cultures”.
